Reference: paper PMC7523345 (Investigational new drugs, 2018)

Tests used:
Deltex1 = Deltex1 expression in peripheral blood; assay type: in vivo, human; details: 4 mg BIW
solid tumour xenografts = details: including 3 breast, 1 NSCLC, 1 pancreatic carcinoma; nonclinical; cited from earlier work
advanced solid tumours = experiment: Tumour response by RECIST 1.1; assay type: in vivo, human
Hes1 = Hes1 expression in peripheral blood; assay type: in vivo, human; details: after 2 weeks of dosing at 1.2 mg QD and 1.5 mg QD

## Cc1cccc2c1NC(=O)[C@@H](NC(=O)[C@H](CCC(F)(F)F)[C@H](CCC(F)(F)F)C(N)=O)N=C2c1cccc(F)c1 [BMS-986115]
Deltex1
  Inhibition of geometric mean relative expression of Deltex1: > 50%
Solid tumour xenografts
  Solid tumour xenografts with anti-tumour activity: 5 out of 7
Advanced solid tumours; 36 treated subjects
  Subjects with progressive disease as best tumour response: 58%
  Subjects with stable disease (SD) as best tumour response: 31%
Advanced solid tumours; 36 treated subjects, both arms
  Subjects with SD for more than 6 months: 5 subjects
Advanced solid tumours; Arm A
  Patients with stable disease for more than 6 months: Three
Advanced solid tumours; Arm B
  Patients with stable disease for more than 6 months: 2 patients
Advanced solid tumours; dose levels that are pharmacodynamically active
  Patients with prolonged SD of >6 months with disease shrinkage: 3 patients
Advanced solid tumours; patient with clear cell renal cell carcinoma, 1.2 mg QD, after ~5.5 months of treatment
  maximum tumor shrinkage: 23.9%
Advanced solid tumours; patient with fibromatosis, 1.5 mg QD, after ~9 months of treatment
  maximum disease shrinkage: 16.5%
Advanced solid tumours; patient with retroperitoneal liposarcoma, 2 mg QD, after ~7.5 months of treatment
  maximum tumor shrinkage: 13.8%
Hes1
  Peak inhibition of geometric mean relative expression of Hes1: > 80%
